Measurements: PMC7058083, “Structural basis of ligand binding modes at the human formyl peptide receptor 2” (Nature Communications, 2020)
Numbering of substitutions follows the chain as printed. Residues, ends and D or L forms follow the SMILES beside them. *: point of attachment. For = O=C*

Tests used:
Experiment in all cases: Competition binding of fMLFK with WK(FITC)YMVm, flow cytometry on HEK293F cells
[1] = biological target: T1, wild-type (WT) and mutant FPR2 (Homo sapiens, UniProt P25090, L268A); conditions: FPR2 L268A; mean ± s.e.m., n=3; SEM
T1 construct: expressed in transfected cells; host or cells: HEK293F
T1 sequence (P25090 1-351 L268A): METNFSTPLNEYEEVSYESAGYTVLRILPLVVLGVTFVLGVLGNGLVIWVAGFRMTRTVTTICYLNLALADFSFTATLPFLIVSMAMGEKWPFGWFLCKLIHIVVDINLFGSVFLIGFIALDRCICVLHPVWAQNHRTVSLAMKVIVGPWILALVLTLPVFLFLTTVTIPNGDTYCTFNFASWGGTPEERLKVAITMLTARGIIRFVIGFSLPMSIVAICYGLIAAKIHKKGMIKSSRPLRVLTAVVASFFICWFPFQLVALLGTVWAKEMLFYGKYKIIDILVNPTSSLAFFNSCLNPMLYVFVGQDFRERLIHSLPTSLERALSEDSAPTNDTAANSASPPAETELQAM
Protocol: (§1) Flag-tagged wild-type and mutant FPR2s were cloned into the pTT5 vector and expressed in HEK293F cells. The cells were harvested, and washed with Hanks’ Balanced Salt Solution (HBSS) buffer supplemented with 0.5% bovine serum albumin and 20 mM HEPES, pH 7.4. The cells were then resuspended in the same buffer to the final concentration of 1 × 10^6 cells per ml. The cell-surface expression was measured as mentioned above. […] Mean fluorescent intensity of each well was then read by a FCM (flow cytometry) reader (Millipore). […] For competitive binding of fMLFK, cells were plated in 96-well plates (100,000 cells per well), and incubated with WK(FITC)YMVm at 4 °C for 1 h. The following concentrations of WK(FITC)YMVm were used: 10 nM (wild type, L81^2.60F, E89G, and V105^3.32A), 30 nM (D281^7.32G), 40 nM (H102^3.29F, V160^4.60A, L268^ECL3A, N285^7.36A, and F292^7.43A), and 100 nM (L164^4.64A and T177A). Then increasing concentrations of fMLFK (100 nM–1 mM) were added, and incubated for another 1 h on ice. Mean fluorescent intensity values were measured by flow cytometry. Data were analyzed using Prism 7.0.

[2] = biological target: T2, wild-type (WT) and mutant FPR2 (Homo sapiens, UniProt P25090, V105A); conditions: FPR2 V105A; mean ± s.e.m., n=3; SEM
T2 construct: expressed in transfected cells; host or cells: HEK293F
T2 sequence (P25090 1-351 V105A): T1 sequence (P25090 1-351 L268A) with V105A, A268L
Protocol: as §1

[3] = biological target: T3, wild-type (WT) and mutant FPR2 (Homo sapiens, UniProt P25090, T177A); conditions: FPR2 T177A; mean ± s.e.m., n=4; SEM
T3 construct: expressed in transfected cells; host or cells: HEK293F
T3 sequence (P25090 1-351 T177A): T1 sequence (P25090 1-351 L268A) with T177A, A268L
Protocol: as §1

[4] = biological target: T4, wild-type (WT) and mutant FPR2 (Homo sapiens, UniProt P25090, N285A); conditions: FPR2 N285A; mean ± s.e.m., n=3; SEM
T4 construct: expressed in transfected cells; host or cells: HEK293F
T4 sequence (P25090 1-351 N285A): T1 sequence (P25090 1-351 L268A) with A268L, N285A
Protocol: as §1

[5] = biological target: T5, wild-type (WT) and mutant FPR2 (Homo sapiens, UniProt P25090); conditions: FPR2 WT; mean ± s.e.m., n=5; SEM
T5 construct: expressed in transfected cells; host or cells: HEK293F
T5 sequence (P25090 1-351): T1 sequence (P25090 1-351 L268A) with A268L
Protocol: as §1

pKi, competition binding [1]: 4.42 ± 0.15
pKi, competition binding [2]: 4.56 ± 0.21
pKi, competition binding [3]: 3.97 ± 0.21
pKi, competition binding [4]: 3.75 ± 0.16
pKi, competition binding [5]: 4.08 ± 0.19
SMILES: CSCC[C@H](NC=O)C(=O)N[C@@H](CC(C)C)C(=O)N[C@@H](Cc1ccccc1)C(=O)N[C@@H](CCCCN)C(=O)O [fMLFK] (For-MLFK-OH)
